In US20030228281A1, “Use of mutant herpes viruses and anticancer agents in the treatment of cancer” (priority 2000, published 2003):
“Also recorded” adds a separate entry of the source.

Columns and labels:
MKN-45-P cells = experiment: MTT cytotoxicity with Chou-Talalay combination analysis; format: cell-based, human
Experimental: (§1) Cytotoxicity assays were performed by plating 1×10^4 cells/well into 96 well assay plates (Costar, Corning Inc., Corning, N.Y.). […] These ratios were determined by estimating the ED50 for each drug in initial experiments and by using these doses to determine the ratio of combination therapy. Percent cell survival for each group (vs. controls) was calculated 5d after treatment using a standard MTT (3-(4,5-dimethylthiazol-2-yl)-2,5-diphenyl-2H tetrazolium bromide) bioassay. A micro-plate reader was used to evaluate for the presence of the MTT-formazan product at 550 nm. Background optical density (OD) was subtracted from the OD readings of all samples. Cell viability was then calculated by dividing the mean absorbance (OD)(n=6) of the treated wells by the mean absorbance (OD)(n=6) of the untreated (control) wells.
(§2) This method defines the expected additive effect of two agents and then quantifies synergism or antagonism by determining how much the combination effect differs from the expected additive effect. The equations and computer software used for data analysis have been described in detail elsewhere (Chou, T., editors. Academic Press, New York. 61-102, 1991; Chou et al., Advances in Enzyme Regulation 22:27-55, 1984; Chou et al., Manual and Software for IBM-PC 1987; Chou, J., Academic Press, New York 223-244, 1991). The combination index equation is used to precisely analyze two-drug combinations. Interpretation of CI values are defined such that a CI=1 indicates an additive effect, while a CI<1 and a CI>1 indicate synergism and antagonism, respectively. Cytotoxicity data obtained from the experiments described above were used in the Chou-Talalay analysis. […] Based on the actual experimental data, computer software was used to calculate serial CI values over an entire range of effect levels (Fa) from 5-95%. […] Data were also analyzed by the isobologram technique, which is dose-oriented. The axes on an isobologram represent the doses of each drug. For any given Fa value, two points on the x and y axes are chosen that correspond to the doses of each drug necessary to generate that given Fa value. The straight line drawn between these two points corresponds to the possible combination doses that would be required to generate the same Fa value, assuming that the interaction between the two drugs is strictly additive. The observed experimental concentrations actually required to achieve a given Fa value are then added to the plot. If these points lie on the straight line then the effect is additive at that Fa value. If the point lies to the left of the straight line then the effect is synergistic, and if the point lies to the right of the straight line then the effect is antagonistic at that Fa value. Another calculation available using the combination index method is the dose-reduction index (DRI). The DRI is a determination of the fold-dose reduction allowed for each drug when given in synergistic combination, as compared to the concentration of single agent therapy needed to achieve the same effect level. A DRI>1 signifies a favorable reduction in toxicity while still maintaining therapeutic efficacy.

OCUM-2MD3 cells = experiment: as above; format: cell-based, human
Experimental: as §1, §2

GADD34 mRNA (OCUM cells) = experiment: Northern hybridization for GADD34 in cells treated with MMC; format: cell-based, human; details: for Increase in GADD34 band intensity vs negative control: high dose MMC 0.04 μg/cc; for GADD34 band: low dose MMC 0.005 μg/cc
Experimental: Cells were cultured with 12 cc culture media containing 0 μg/ml (untreated), 0.005 μg/ml (low dose), or 0.04 μg/ml (high dose) of Mitomycin-C (Bristol Laboratories, Princeton, N.J.). Cells were harvested by trypsinization at 24 and 48 hours. Total RNA was prepared using a total RNA isolation system (Promega, Madison, Wis.) and RNA content was measured by optical density at 260 nm. 7 μg of RNA per sample was loaded in a denaturing 1.2% agarose gel. Electrophoretic separation, RNA transfer to a nitrocellulose membrane (Intergen, Purchase, N.Y.), hybridization (50% formamide at 40° C.), and autoradiographic identification were done by standard techniques. The cDNA clone GADD34 containing a 2.4 kb insert was provided by Dr. A. Fomace, Jr, and the cDNA clone a-actin containing a 1.1 kb insert was acquired from ATCC (Manassas, Va.)(Hollander et al., J. Biol. Chem. 272:13731-13737, 1997). cDNA that had been excised from plasmid vectors was labelled with [^32P]dCTP by the random-primer labelling method (Stratagene, La Jolla, Calif.).

[1] = test system: OCUM-2MD3 peritoneal tumor; experiment: Murine xenograft model of gastric carcinomatosis, intraperitoneal treatment; format: in vivo, athymic nude mice; details: 0.1 mg/kg MMC i.p., 4 weeks
Source text: An established murine xenograft model of gastric carcinomatosis was used as previously described (Bennett et al., Journal of Molecular Medicine 78:166-174, 2000; Yashiro et al., Clin. Exp. Metastasis 14:43-54, 1996). Intraperitoneal (i.p.) injection of 2×10^6 OCUM-2MD3 cells reliably develops disseminated peritoneal tumor that seeds the omentum, small and large bowel mesentery, diaphragm, gonadal fat and hepatic hilum. Macroscopic nodules are present within three days after injection, and the development of overwhelming tumor burden, bloody ascites and cachexia occurs by four weeks post-injection. To assess tumor burden, animals were eviscerated at sacrifice and peritoneal tumor was stripped from associated abdominal organs as previously described. Tumor burden was then assessed by weight.
Animals were all injected i.p. with 2×10^6 OCUM-2MD3 cells and treated 3d later. […] Animals were sacrificed 4 weeks later and tumor burden was assessed as described (Bennett et al., Journal of Molecular Medicine 78:166-174, 2000).

ribonucleotide reductase = molecular target: T1, ribonucleotide reductase (Homo sapiens, UniProt P23921); experiment: CDP reductase assay on HCT8 cell extracts incubated with FdUMP; format: biochemical
T1 construct: 50 mM HEPES (pH 7.2), and 100 μl extract (0.2-0.7 mg protein); endogenous in cells
T1 sequence (P23921 1-792): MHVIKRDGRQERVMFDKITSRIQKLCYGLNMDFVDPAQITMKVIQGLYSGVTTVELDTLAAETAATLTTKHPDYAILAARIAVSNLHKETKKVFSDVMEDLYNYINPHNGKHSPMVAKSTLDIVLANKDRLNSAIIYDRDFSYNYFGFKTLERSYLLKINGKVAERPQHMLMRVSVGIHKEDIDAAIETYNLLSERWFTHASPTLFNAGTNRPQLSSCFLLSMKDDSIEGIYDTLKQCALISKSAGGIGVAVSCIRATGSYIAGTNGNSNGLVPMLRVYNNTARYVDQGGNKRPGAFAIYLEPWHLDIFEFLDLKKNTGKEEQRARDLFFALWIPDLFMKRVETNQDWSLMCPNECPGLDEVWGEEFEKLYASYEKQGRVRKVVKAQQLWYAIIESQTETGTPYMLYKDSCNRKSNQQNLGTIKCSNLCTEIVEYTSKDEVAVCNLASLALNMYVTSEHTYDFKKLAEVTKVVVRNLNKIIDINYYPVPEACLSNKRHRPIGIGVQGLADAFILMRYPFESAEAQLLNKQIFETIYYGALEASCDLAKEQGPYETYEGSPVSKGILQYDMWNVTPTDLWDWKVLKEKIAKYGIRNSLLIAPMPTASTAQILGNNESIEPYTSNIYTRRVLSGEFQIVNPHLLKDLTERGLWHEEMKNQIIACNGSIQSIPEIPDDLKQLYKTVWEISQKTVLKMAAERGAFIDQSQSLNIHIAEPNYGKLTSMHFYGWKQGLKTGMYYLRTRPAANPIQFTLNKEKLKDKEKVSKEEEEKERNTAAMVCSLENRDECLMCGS
Experimental: Cells grown in 250 cm^2-flasks were trypsinized and washed twice in ice-cold PBS. Cells were centrifuged at 300×g for 5 min at 4° C. and resuspended in 3 volumes of Low Salt Extraction Buffer (10 mM HEPES, pH 7.2, 2 mM DTT). Viable cell count of the resuspension was determined by trypan blue exclusion. After 30 min incubation on ice, the cell suspension was drawn 10× through a 28G½ needle. The crude homogenate was centrifuged at 100,000×g for 60 min at 4° C. to remove cellular debris. The supernatant fraction was dialyzed against 1,000 volumes of the Low Salt Extraction Buffer for 4 hours with one buffer change after 2 hours using dialysis cassettes with a molecular weight cut-off of 10,000 (Slide-A-Lyzer Dialysis Cassettes, Pierce, Rockford, Ill.). The dialyzed extract was snap-frozen in liquid nitrogen and stored at −80° C. until analysis. All extraction procedures were performed at 4° C.
Activity of ribonucleotide reductase was determined by a modified method of Steeper and Stuart (Steeper et al., Anal. Biochem. 34:123-130, 1970). Conversion of CDP to dCDP was monitored using [^14C]CDP (53 mCi/mmol, Movarek Biochemicals, Inc.) as substrate and rattlesnake venom from Crotalus adamanteus (Sigma) to hydrolyze nucleotides to nucleosides. The reaction mixture contained the following concentrations of ingredients in a final volume of 150 μl: 40 μM CDP, 10 μM [^14C]CDP (0.08 μCi), 6 mM DTT, 4 mM magnesium acetate, 2 mM ATP, 50 mM HEPES (pH 7.2), and 100 μl extract (0.2-0.7 mg protein). The enzyme reaction was carried out for 30 min at 37° C. and stopped by incubation at 100° C. for 4 min. Nucleotides were hydrolyzed by adding 50 μl carrier dCMP (6 mM dCMP, 2 mM MgCl2, 6 mM Tris-HCl, pH 8.8) and 25 μl snake venom suspension (50 mg/ml). After 3 hours incubation at 37° C., the reaction mixture was heat-inactivated by boiling for 4 min. Heat-precipitated material was removed by centrifugation at 14,000×g for 10 min at room temperature. [^14C]deoxycytosine was separated from [^14C]cytosine by covalent chromatography using phenylboronic acid-columns (BondElut PBA, Varian, Harbor City, Calif.). Triethenolamine Buffer (pH 10) was added to the supernatant fraction to a final concentration of 0.4 M and 1 ml of this mixture was applied to the column. Fractions were collected and measured for radioactivity by liquid scintillation spectrometry (LS 60001C Liquid Scintillation System, Beckman Instruments, Inc., Fullerton, Calif.). One unit of enzyme activity was defined as conversion of 1 nmol CDP to the product dCDP in 1 hour at 37° C.

CO[C@@]12[C@H](COC(N)=O)C3=C(C(=O)C(C)=C(N)C3=O)N1C[C@@H]1N[C@@H]12 [MMC, Mitomycin C]
MMC alone, dose needed to kill fraction affected (MKN-45-P cells; Fa 10%): 0.014 ug/cc | MMC alone, dose needed to kill fraction affected (MKN-45-P cells; Fa 20%): 0.027 ug/cc | MMC alone, dose needed to kill fraction affected (MKN-45-P cells; Fa 30%): 0.040 ug/cc | MMC alone, dose needed to kill fraction affected (MKN-45-P cells; Fa 40%): 0.056 ug/cc | MMC alone, dose needed to kill fraction affected (MKN-45-P cells; Fa 50%): 0.077 ug/cc | MMC alone, dose needed to kill fraction affected (MKN-45-P cells; Fa 60%): 0.105 ug/cc | MMC alone, dose needed to kill fraction affected (MKN-45-P cells; Fa 70%): 0.147 ug/cc | MMC alone, dose needed to kill fraction affected (MKN-45-P cells; Fa 80%): 0.222 ug/cc | MMC alone, dose needed to kill fraction affected (MKN-45-P cells; Fa 90%): 0.413 ug/cc | MMC alone, dose needed to kill fraction affected (MKN-45-P cells; Fa 95%): 0.732 ug/cc | Dose lowering when given as combination therapy (MKN-45-P cells; combination of MMC and G207): 2-9 fold | MMC alone, dose needed to kill fraction affected (OCUM-2MD3 cells; Fa 10%): 0.009 ug/cc | MMC alone, dose needed to kill fraction affected (OCUM-2MD3 cells; Fa 20%): 0.014 ug/cc | MMC alone, dose needed to kill fraction affected (OCUM-2MD3 cells; Fa 30%): 0.017 ug/cc | MMC alone, dose needed to kill fraction affected (OCUM-2MD3 cells; Fa 40%): 0.021 ug/cc | MMC alone, dose needed to kill fraction affected (OCUM-2MD3 cells; Fa 50%): 0.026 ug/cc | MMC alone, dose needed to kill fraction affected (OCUM-2MD3 cells; Fa 60%): 0.031 ug/cc | MMC alone, dose needed to kill fraction affected (OCUM-2MD3 cells; Fa 70%): 0.038 ug/cc | MMC alone, dose needed to kill fraction affected (OCUM-2MD3 cells; Fa 80%): 0.048 ug/cc | MMC alone, dose needed to kill fraction affected (OCUM-2MD3 cells; Fa 90%): 0.070 ug/cc | MMC alone, dose needed to kill fraction affected (OCUM-2MD3 cells; Fa 95%): 0.100 ug/cc | Increase in GADD34 band intensity vs negative control (GADD34 mRNA (OCUM cells); 24 hours): 2.49 fold | Increase in GADD34 band intensity vs negative control (GADD34 mRNA (OCUM cells); 48 hours): 3.21 fold | GADD34 band (GADD34 mRNA (OCUM cells); 24 hours): did not result in upregulation | GADD34 band (GADD34 mRNA (OCUM cells); 24 hours, listed as Mitomycin C): did not show any band | GADD34 band (GADD34 mRNA (OCUM cells); 48 hours): did not show any GADD34,band; also recorded: failed to demonstrate the presence of GADD34 mRNA | Mean peritoneal tumor burden (±SEM) [1]: 1490 (±310) mg

O=c1[nH]c(=O)n([C@H]2C[C@H](O)[C@@H](COP(=O)(O)O)O2)cc1F [FdUMP, 2′-deoxy-5-fluorouridine 5′ monophosphate]
Activity (ribonucleotide reductase; 0.001 mM FdUMP): 77.0% | RR activity (ribonucleotide reductase; 0.001 mM FdUMP): 0.47 ± 0.02 nmol dCDP / h | inhibition at 1 µM (ribonucleotide reductase; 0.001 mM FdUMP): 23% | Activity (ribonucleotide reductase; 0.01 mM FdUMP): 73.8% | RR activity (ribonucleotide reductase; 0.01 mM FdUMP): 0.45 ± 0.02 nmol dCDP / h | inhibition at 10 µM (ribonucleotide reductase; 0.01 mM FdUMP): 26.2% | Activity (ribonucleotide reductase; 0.1 mM FdUMP): 70.5% | RR activity (ribonucleotide reductase; 0.1 mM FdUMP): 0.43 ± 0.03 nmol dCDP / h | inhibition at 100 µM (ribonucleotide reductase; 0.1 mM FdUMP): 29.5% | Activity (ribonucleotide reductase; 1 mM FdUMP): 39.3% | RR activity (ribonucleotide reductase; 1 mM FdUMP): 0.24 ± 0.02 nmol dCDP / h | RR inhibition in words (ribonucleotide reductase; 1 mM FdUMP): Substantial enzyme inhibition | inhibition at 1000 µM (ribonucleotide reductase; 1 mM FdUMP): 60.7% | RR activity remaining (ribonucleotide reductase; 0.001 to 0.1 mM FdUMP): 80 to 70% | Activity (ribonucleotide reductase; 10 mM FdUMP): 22.9% | RR activity (ribonucleotide reductase; 10 mM FdUMP): 0.14 ± 0.01 nmol dCDP / h | inhibition at 10000 µM (ribonucleotide reductase; 10 mM FdUMP): 77.1%
